Reference: US20260297060A1, “COMPOUNDS FOR THE DEGRADATION OF MUTANT BRAF” (C4 THERAPEUTICS, INC., priority 2023, published 2026)

Key:
[1] = system: A375 tumors; experiment: In vivo efficacy, A375 xenograft tumor volume (Example 8); parameters: species or system human A375 melanoma xenograft in female BALB/c nude mice; conditions: oral, FIG. 22
Protocol: FIG. 22 is a line graph showing in vivo efficacy of encorafenib, Compound 8, Compound 26, and Compound 38 in the treatment of female BALB/c nude mice bearing A375 tumors. Mice were treated with vehicle (10 μL/g, p.o., BID), encorafenib (35 mg/kg, p.o., QD), Compound 8 (10 mg/kg, p.o., BID), Compound 26 (10 mg/kg, p.o., BID), or Compound 38 (10 mg/kg, p.o., BID) by oral gavage (p.o.). Data points represent group mean change in tumor volume. Error bars represent standard error of the mean (SEM). The x-axis is the time measured in days and the y-axis is A375 tumor volume measured in mm^3. The experiment was conducted as described in Example 8.

[2] = biological target: T1, human bile salt export pump (BSEP) efflux transporter (Homo sapiens, UniProt O95342); experiment: BSEP Vesicular Transport, one concentration inhibition assay; type: biochemical; conditions: human BSEP (HEK293) vesicles, taurocholate 0.2 μM, 4 mM Mg-ATP, 2 replicates
T1 construct: purchased SOLVO Biotechnology Charles River Laboratories, Szeged, Hungary; host or cells: HEK293 (inside out membrane vesicles)
Protocol: The vesicular transport (VT) assays were performed using inside out membrane vesicles derived from HEK293 cells expressing the specified human bile salt export pump (BSEP) efflux transporter. The membrane vesicles were procured from SOLVO Biotechnology Charles River Laboratories, Szeged, Hungary.
The principle of the assay relies on measuring the accumulation of substrate into inside out vesicles containing the efflux transporter. By utilizing inside out vesicles, the ATP-dependent transport of substrate is directed into the vesicular lumen, where low permeability compounds are then essentially trapped.
For the 1 concentration inhibition assay, each compound was tested in the presence of ATP (active transport) in 2 replicates.
The solvent control (DMSO) was tested in the presence of ATP (active transport) and in the presence of AMP (background) in 8 replicates. […]
The samples were then be transferred to a filter plate and washed with 200 μL cold washing mix5-times to remove any free compounds or taurocholate probe substrate. The amount of taurocholate probe substrate inside the filtered vesicles were determined by liquid scintillation counting. […] The amount of taurocholate probe substrate inside the filtered vesicles were determined by liquid scintillation counting.

[3] = Human dose projections for Compound 26 (allometry, PBPK model), Example 15
Description: The first-in-human dose projections for Compound 26 were made using prediction models. These models utilized experimentally determined physicochemical and ADME parameters relevant to Compound 26. The in vivo plasma clearance (Cl) and volume of distribution (Vdss) values obtained across different preclinical species (mouse, rat, dog and monkey) were scaled to predict human values using allometry. […] In addition, the human efficacious AUC (area under the concentration curve) was derived from a PKPD efficacy study in a tumor bearing mouse model. […] With these inputs a pharmacokinetic model (PBPK) was developed to project first in human BID dose. The oral bioavailability data for Compound 26 from preclinical species, mouse, rat, dog and monkey was simulated in the PBPK model for that species, to build confidence in the human PBPK model.

T1 sequence (O95342 whole entry): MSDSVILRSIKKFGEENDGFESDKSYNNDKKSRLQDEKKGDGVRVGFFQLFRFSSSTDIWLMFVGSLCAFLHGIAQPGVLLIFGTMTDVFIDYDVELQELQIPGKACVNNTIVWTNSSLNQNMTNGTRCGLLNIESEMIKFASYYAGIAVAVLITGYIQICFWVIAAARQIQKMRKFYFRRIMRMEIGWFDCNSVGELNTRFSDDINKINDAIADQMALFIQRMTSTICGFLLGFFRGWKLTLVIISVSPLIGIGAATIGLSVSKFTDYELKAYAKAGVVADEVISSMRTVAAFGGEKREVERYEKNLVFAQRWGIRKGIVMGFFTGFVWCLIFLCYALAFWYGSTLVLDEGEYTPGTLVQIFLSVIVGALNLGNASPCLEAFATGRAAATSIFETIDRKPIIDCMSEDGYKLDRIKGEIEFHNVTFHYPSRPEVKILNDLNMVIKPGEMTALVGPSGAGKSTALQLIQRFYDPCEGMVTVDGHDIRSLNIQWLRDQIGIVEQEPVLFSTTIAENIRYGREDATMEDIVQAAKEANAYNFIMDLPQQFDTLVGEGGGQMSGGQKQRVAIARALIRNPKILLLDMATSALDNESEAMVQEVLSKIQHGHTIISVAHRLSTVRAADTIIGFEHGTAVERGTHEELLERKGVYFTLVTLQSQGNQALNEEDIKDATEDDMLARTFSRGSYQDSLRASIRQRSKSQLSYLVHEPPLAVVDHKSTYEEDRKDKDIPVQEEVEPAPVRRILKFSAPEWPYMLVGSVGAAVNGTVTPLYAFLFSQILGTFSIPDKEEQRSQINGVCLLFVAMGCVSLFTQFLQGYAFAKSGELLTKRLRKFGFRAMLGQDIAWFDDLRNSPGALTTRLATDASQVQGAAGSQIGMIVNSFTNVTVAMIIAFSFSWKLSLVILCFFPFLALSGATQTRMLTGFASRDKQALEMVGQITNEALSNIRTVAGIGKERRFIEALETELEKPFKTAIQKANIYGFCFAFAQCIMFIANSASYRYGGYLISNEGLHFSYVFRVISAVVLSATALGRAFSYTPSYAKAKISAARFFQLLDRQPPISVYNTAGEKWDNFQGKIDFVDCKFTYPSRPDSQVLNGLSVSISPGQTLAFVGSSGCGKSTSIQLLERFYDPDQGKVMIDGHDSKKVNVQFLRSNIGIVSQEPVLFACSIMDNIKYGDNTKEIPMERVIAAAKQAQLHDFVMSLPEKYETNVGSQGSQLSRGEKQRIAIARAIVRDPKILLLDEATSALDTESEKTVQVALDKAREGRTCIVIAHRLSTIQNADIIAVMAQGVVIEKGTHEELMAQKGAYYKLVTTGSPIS

Structure (SMILES): CCN(C)S(=O)(=O)Nc1ccc(F)c(Oc2ccc3ncn(C4CC5(CCN(C6CCC(c7cc8c(cc7F)c(N7CCC(=O)NC7=O)nn8C)CC6)CC5)C4)c(=O)c3c2)c1C#N (single isomer, unassigned) [Compound 8, 6-[2-cyano-3-[[ethyl(methyl)sulfamoyl]amino]-6-fluoro-phenoxy]-3-[7-[4-[3-(2,4-dioxohexahydropyrimidin-1-yl)-5-fluoro-1-methyl-indazol-6-yl]cyclohexyl]-7-azaspiro[3.5]nonan-2-yl]-4-oxo-quinazoline]
- tumor regressions in the xenograft model ([1]; 10 mg/kg BID, A375 xenografts): profound tumor regressions
- antitumor response compared with comparators dabrafenib or encorafenib ([1]; A375 human melanoma xenografts): more robust antitumor response

Structure (SMILES): CCN(C)S(=O)(=O)Nc1ccc(F)c(Oc2ccc3ncn([C@H]4COC5(CCN(C6CC(c7cc8c(cc7F)c(N7CCC(=O)NC7=O)nn8C)C6)CC5)C4)c(=O)c3c2)c1C#N (single isomer, unassigned) [Compound 70]
- BSEP Inhibition SD Inhibition % [2]: 80%

Structure (SMILES): CCN(C)S(=O)(=O)Nc1ccc(F)c(Oc2ccc3ncn([C@H]4COC5(CCN(C6CC7(C6)CN(c6cc8c(cc6F)c(N6CCC(=O)NC6=O)nn8C)C7)CC5)C4)c(=O)c3c2)c1C#N [Compound 26, (3R)-3-[6-[2-cyano-3-[[ethyl(methyl)sulfamoyl]amino]-6-fluoro-phenoxy]-4-oxo-quinazolin-3-yl]-8-[2-[3-(2,4-dioxohexahydropyrimidin-1-yl)-5-fluoro-1-methyl-indazol-6-yl]-2-azaspiro[3.3]heptan-6-yl]-1-oxa-8-azaspiro[4.5]decane]
- Human Vdss ([3]; Table 86): 0.50 L/kg
- Human CL (PPB corrected plasma clearance) ([3]; allometry from mouse, rat, dog and monkey): 0.88 mL/min/kg
